Here are results for 16 compounds from ChEMBL document CHEMBL5291721, “A preclinical secondary pharmacology resource illuminates target-adverse drug reaction associations of marketed drugs” (Nat Commun, 2023).

Usually AC50 stands for the concentration at which the activity in the assay is half-maximal. The low end stands for greater potency, the high end for weaker potency.

Assay [1] deals with T1, Estrogen receptor (Homo sapiens, UniProt P03372).
T1 sequence (P03372 whole entry): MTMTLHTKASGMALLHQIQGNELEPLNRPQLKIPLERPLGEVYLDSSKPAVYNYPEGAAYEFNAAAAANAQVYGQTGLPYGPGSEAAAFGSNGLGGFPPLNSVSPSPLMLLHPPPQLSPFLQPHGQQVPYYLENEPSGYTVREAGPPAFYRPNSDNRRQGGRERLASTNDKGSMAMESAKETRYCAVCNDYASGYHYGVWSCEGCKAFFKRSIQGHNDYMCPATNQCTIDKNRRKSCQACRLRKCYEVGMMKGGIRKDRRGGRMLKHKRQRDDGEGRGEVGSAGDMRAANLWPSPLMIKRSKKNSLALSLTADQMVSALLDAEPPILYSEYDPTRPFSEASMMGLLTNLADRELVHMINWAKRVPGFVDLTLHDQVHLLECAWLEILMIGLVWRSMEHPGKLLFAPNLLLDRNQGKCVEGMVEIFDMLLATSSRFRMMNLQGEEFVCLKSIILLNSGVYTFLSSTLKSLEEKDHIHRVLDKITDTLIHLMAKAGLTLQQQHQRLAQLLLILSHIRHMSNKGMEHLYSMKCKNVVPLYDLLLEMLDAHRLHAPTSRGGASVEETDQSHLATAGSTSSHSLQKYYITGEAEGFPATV

The target of assay [2] is Mu-type opioid receptor (Homo sapiens, UniProt P35372).
In assay [3] the target is Sodium-dependent dopamine transporter (Homo sapiens, UniProt Q01959).
In assay [4] the target is 3',5'-cyclic-AMP phosphodiesterase 4A (Homo sapiens, UniProt P27815). It counts as functional.
The target in assay [5] is T2, Thromboxane A2 receptor (Homo sapiens, UniProt P21731).
T2 sequence (P21731 whole entry): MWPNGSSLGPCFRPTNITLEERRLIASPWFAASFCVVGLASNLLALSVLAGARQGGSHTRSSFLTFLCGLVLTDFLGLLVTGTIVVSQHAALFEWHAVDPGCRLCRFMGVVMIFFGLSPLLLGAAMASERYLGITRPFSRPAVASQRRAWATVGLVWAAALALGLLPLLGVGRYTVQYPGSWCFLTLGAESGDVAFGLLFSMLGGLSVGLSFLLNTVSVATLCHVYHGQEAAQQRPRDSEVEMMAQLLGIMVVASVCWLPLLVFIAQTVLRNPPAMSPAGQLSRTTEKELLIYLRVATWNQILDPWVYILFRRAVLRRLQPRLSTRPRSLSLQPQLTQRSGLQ
It counts as functional, cell-based.

The target of assay [6] is T3, Amine oxidase [flavin-containing] A (Homo sapiens, UniProt P21397).
T3 sequence (P21397 whole entry): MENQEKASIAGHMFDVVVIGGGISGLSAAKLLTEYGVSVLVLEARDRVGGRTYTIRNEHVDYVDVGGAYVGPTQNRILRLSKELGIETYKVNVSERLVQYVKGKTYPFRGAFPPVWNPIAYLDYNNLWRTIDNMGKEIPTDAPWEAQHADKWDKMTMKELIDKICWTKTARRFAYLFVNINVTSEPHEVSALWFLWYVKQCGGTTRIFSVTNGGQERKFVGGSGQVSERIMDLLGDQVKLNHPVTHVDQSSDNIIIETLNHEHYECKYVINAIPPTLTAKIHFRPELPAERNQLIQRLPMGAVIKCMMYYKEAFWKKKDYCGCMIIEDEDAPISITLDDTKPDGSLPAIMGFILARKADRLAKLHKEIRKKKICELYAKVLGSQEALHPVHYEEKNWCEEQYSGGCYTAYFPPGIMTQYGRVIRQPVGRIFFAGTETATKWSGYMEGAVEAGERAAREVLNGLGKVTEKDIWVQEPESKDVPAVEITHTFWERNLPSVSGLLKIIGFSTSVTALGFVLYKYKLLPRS
It counts as functional.

The target of assay [7] is Melanocortin receptor 4 (Homo sapiens, UniProt P32245).
The target in assay [8] is Kappa-type opioid receptor (Homo sapiens, UniProt P41145).
The target in assay [9] is T1, Estrogen receptor. This is another data set of the same source.
The target in assay [10] is T4, Endothelin-1 receptor (Homo sapiens, UniProt P25101).
T4 sequence (P25101 whole entry): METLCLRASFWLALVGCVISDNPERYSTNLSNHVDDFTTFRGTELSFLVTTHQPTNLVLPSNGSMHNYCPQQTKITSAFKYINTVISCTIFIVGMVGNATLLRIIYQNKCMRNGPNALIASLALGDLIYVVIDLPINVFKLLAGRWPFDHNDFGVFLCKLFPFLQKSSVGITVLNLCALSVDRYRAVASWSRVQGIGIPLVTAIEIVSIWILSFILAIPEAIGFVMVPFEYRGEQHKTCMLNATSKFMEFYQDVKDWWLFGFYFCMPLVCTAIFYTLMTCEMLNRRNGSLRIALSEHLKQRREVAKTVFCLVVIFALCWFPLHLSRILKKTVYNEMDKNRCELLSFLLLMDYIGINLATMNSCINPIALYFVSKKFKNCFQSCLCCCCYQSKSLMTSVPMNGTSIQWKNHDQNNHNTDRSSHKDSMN

Assay [11] deals with T5, Prostaglandin G/H synthase 1 (Homo sapiens, UniProt P23219). The class given is functional.
Assay [12] deals with T5, Prostaglandin G/H synthase 1. It counts as functional. This is another data set of the same source.
Also: assay procedure not described here.

3',5'-cyclic-AMP phosphodiesterase 4A, sequence (P27815 whole entry): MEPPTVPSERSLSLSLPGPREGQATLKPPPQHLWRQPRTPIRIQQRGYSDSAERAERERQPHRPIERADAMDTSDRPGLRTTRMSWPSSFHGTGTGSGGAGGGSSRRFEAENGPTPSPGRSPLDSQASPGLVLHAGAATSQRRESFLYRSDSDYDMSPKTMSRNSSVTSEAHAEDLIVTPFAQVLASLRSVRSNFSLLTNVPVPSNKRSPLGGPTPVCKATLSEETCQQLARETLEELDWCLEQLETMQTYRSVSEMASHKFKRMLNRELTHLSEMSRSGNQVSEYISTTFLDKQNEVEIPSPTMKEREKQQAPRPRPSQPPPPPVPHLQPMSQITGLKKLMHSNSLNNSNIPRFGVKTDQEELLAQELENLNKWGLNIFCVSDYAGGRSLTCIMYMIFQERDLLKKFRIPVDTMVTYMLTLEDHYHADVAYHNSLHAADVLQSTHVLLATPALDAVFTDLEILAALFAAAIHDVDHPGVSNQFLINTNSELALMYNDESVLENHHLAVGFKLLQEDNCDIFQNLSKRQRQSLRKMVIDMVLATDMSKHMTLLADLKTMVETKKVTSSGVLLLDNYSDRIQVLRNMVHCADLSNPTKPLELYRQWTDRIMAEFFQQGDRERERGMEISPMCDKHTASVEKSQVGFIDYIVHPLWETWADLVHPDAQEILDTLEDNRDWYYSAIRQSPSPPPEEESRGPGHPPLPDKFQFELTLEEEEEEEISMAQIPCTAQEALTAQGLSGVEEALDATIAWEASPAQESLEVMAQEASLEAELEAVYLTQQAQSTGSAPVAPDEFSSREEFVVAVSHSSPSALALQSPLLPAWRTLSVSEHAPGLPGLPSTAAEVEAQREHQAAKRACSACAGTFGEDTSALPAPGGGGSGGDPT
Melanocortin receptor 4, sequence (P32245 whole entry): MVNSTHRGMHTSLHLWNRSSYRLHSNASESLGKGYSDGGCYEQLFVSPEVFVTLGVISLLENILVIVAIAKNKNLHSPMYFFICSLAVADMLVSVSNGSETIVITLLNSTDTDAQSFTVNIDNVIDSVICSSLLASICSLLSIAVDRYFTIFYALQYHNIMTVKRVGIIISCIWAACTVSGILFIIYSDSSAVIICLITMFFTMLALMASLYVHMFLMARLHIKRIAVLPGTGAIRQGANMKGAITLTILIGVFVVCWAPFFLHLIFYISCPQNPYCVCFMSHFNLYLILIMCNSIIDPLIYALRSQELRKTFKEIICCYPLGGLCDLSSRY
T5 sequence (P23219 whole entry): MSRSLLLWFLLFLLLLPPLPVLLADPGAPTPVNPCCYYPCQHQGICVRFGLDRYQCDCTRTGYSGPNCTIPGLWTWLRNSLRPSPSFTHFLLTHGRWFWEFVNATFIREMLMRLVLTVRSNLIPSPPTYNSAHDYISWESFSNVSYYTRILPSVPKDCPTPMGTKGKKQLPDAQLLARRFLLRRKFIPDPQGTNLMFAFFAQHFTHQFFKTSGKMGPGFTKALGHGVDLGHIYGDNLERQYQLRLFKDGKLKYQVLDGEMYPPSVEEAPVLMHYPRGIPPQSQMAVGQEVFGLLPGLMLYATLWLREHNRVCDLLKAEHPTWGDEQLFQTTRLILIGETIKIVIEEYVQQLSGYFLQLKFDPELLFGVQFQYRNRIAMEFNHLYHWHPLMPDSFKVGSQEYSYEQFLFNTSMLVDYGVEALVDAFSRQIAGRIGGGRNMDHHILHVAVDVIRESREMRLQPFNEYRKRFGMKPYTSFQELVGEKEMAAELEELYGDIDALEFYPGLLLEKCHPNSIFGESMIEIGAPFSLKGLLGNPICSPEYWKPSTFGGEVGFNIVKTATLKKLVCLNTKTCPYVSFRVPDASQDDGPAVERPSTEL
Sodium-dependent dopamine transporter, sequence (Q01959 whole entry): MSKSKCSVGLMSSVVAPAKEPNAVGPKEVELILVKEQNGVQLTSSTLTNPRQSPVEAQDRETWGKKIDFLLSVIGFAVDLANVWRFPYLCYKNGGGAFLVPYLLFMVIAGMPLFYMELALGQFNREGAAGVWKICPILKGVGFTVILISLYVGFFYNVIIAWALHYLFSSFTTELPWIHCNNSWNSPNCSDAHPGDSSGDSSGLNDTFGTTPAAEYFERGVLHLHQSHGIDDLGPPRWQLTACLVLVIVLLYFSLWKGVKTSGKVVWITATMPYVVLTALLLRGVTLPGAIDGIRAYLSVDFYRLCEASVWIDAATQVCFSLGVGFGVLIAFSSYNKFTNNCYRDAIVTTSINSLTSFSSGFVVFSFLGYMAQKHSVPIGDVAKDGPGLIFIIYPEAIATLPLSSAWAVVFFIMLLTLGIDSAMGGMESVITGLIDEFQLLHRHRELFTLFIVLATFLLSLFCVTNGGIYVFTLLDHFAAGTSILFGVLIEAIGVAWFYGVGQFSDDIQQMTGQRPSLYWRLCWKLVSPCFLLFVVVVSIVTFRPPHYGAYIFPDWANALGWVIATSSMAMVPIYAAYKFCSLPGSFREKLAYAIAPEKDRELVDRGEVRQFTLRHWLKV
Kappa-type opioid receptor, sequence (P41145 whole entry): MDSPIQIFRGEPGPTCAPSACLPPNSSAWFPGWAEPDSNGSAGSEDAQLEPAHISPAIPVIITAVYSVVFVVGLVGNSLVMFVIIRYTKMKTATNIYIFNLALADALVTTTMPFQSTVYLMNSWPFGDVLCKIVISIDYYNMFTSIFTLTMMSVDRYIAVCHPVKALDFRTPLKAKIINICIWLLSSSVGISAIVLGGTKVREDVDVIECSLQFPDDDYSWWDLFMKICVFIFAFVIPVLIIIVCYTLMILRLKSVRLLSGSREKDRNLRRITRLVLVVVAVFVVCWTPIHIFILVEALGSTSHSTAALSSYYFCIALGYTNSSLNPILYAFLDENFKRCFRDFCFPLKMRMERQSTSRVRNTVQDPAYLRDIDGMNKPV
Mu-type opioid receptor, sequence (P35372 whole entry): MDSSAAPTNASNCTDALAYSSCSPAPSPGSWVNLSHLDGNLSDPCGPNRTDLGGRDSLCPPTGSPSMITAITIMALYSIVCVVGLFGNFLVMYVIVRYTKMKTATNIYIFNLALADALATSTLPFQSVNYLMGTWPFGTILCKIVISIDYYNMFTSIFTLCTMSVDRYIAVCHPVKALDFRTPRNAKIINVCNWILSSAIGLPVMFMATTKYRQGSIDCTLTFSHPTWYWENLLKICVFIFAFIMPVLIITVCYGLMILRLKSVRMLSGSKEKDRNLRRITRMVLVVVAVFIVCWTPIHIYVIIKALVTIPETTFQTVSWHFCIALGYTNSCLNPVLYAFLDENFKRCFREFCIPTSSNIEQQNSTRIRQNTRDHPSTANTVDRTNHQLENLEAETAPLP

For `CC(C(=O)O)c1ccc(-c2ccccc2)c(F)c1` (centres undefined) [FLURBIPROFEN], the AC50 in [1], in [2], in [3], in assay [4], in [5] and in assay [6] was greater than 30 µM in each case. Further, the AC50 in [7] is greater than 10 µM; in assay [8], greater than 10 µM; in assay [9], greater than 30 µM.
Consider `O=C(O)c1cn(C2CC2)c2cc(N3CCNCC3)c(F)cc2c1=O` [CIPROFLOXACIN], for which the concentration at half-maximal activity (AC50) in assay [1], in assay [4], in [5], in [7], in assay [9] and in assay [10] was greater than 30 µM throughout.
On to `COc1cc(N2CCC(N3CCN(C)CC3)CC2)ccc1Nc1ncc(Cl)c(Nc2ccccc2P(C)(C)=O)n1` [BRIGATINIB], for which the AC50 was greater than 30 µM in assay [3]; greater than 30 µM in [4]; greater than 30 µM in [5]; greater than 30 µM in assay [11]; greater than 30 µM in assay [6]; 26.3 µM in assay [12]. In [9], this compound returned an AC50 greater than 30 µM.
Consider `COC(=O)c1ccc(O)cc1` [METHYLPARABEN], for which the half-maximal activity concentration (AC50) was greater than 30 µM in assay [3]; greater than 30 µM in [4]; greater than 30 µM in assay [5]; greater than 30 µM in [11]; greater than 30 µM in assay [6]; greater than 1 µM in [12]. In assay [9], this compound had an AC50 greater than 30 µM.
For `COc1cc2c(cc1OC)CC(=O)N(CCCN(C)C[C@H]1Cc3cc(OC)c(OC)cc31)CC2` [IVABRADINE], the AC50 in assay [3], in [4], in [5], in [11], in assay [6] and in assay [12] was greater than 30 µM in each case. In assay [9], this compound had an AC50 greater than 30 µM.
Consider `C[C@H](Cc1cc2c(c(C(N)=O)c1)N(CCCO)CC2)NCCOc1ccccc1OCC(F)(F)F` [SILODOSIN], for which the AC50 is 18.6 µM in assay [3]; greater than 30 µM in assay [4]; greater than 30 µM in assay [5]; greater than 30 µM in assay [11]; greater than 30 µM in assay [6]; 15 µM in [12]. The AC50 in [9] is greater than 30 µM.
With `CN(C)CCOC(c1ccccc1)c1ccc(Br)cc1` (centres undefined) [BROMODIPHENHYDRAMINE], the AC50 was 0.757 µM in [3]; greater than 30 µM in [4]; 14.8 µM in assay [5]; greater than 30 µM in [11]; greater than 30 µM in assay [6]; greater than 30 µM in [12]. Also, in assay [9], the AC50 was greater than 30 µM.
For the compound `CCN(CCCc1ccccc1)CCCc1ccccc1` [ALVERINE], the AC50 in [3] was 0.481 µM; in assay [4] it was greater than 30 µM; in assay [5] it was greater than 30 µM; in assay [11], greater than 30 µM; in [6] it was greater than 30 µM; in assay [12], greater than 30 µM. Further, in assay [9], the AC50 is greater than 30 µM.
Take `c1ccc2c(c1)CCc1ccccc1N2C1CN2CCC1CC2` (centres undefined) [QUINUPRAMINE]: the AC50 was 2.62 µM in [3]; greater than 30 µM in assay [4]; greater than 30 µM in [5]; greater than 30 µM in assay [11]; greater than 30 µM in assay [6]; greater than 30 µM in [12]. Besides, the AC50 in assay [9] is greater than 30 µM.
As to `Cc1cc(N)c2ccccc2[n+]1CCCCCCCCCC[n+]1c(C)cc(N)c2ccccc21`, the half-maximal activity concentration (AC50) in [3] was 0.89 µM; in assay [4], 3.16 µM; in assay [5], greater than 30 µM; in assay [11] it was 14.8 µM; in assay [6] it was 16.8 µM; in assay [12], 1.57 µM. The same compound came in with an AC50 in assay [9] of 20.8 µM.
Consider `CC(C)(C)NC[C@H](O)COc1cccc2c1CCCC2=O` [LEVOBUNOLOL], for which the AC50 in [3], in [4], in [5], in [11], in assay [6] and in assay [12] was greater than 30 µM throughout. The AC50 in [9] was greater than 30 µM.
Regarding `CC(=O)O[C@]1(C(C)=O)CC[C@H]2[C@@H]3C=C(Cl)C4=CC(=O)CC[C@]4(C)[C@H]3CC[C@@]21C` [CHLORMADINONE ACETATE], the AC50 is greater than 30 µM in assay [3]; greater than 30 µM in assay [4]; 28.5 µM in assay [5]; greater than 30 µM in assay [11]; greater than 30 µM in assay [6]; greater than 30 µM in assay [12]. Moreover, the concentration at half-maximal activity (AC50) in [9] is greater than 30 µM.
`CC1=CCC(C(C)(C)O)CC1O` (centres undefined) [SOBREROL]: the AC50 in assay [3], in assay [4], in assay [5], in assay [11], in assay [6] and in assay [12] was greater than 30 µM in each case. Moreover, in [9], the half-maximal activity concentration (AC50) was greater than 30 µM.
Consider `Cc1cnc(C(=O)NCCc2ccc(S(=O)(=O)NC(=O)NC3CCCCC3)cc2)cn1` [GLIPIZIDE], for which the AC50 was greater than 30 µM in assay [1]; greater than 30 µM in assay [4]; greater than 30 µM in assay [5]; greater than 30 µM in [6]; greater than 30 µM in assay [7]; greater than 10 µM in [8]. The AC50 in [9] and in assay [10] was greater than 30 µM in each case.
As to `CCOC(=O)[C@H](CCc1ccccc1)N[C@@H](C)C(=O)N(CC(=O)O)C1Cc2ccccc2C1`, the AC50 in assay [3], in [4], in assay [5], in [11], in assay [6] and in assay [12] was greater than 30 µM in each case. Also, in assay [9], the AC50 is greater than 30 µM.
For `CC(C)N(CCNC(=O)CN1CCCC1=O)C(C)C`, the AC50 in assay [3], in assay [4], in assay [5], in assay [11], in [6] and in assay [12] was greater than 30 µM throughout. The same compound returned an AC50 in assay [9] greater than 30 µM.
